For 10 compounds, fold induction results are on record in US10004701B2, “Methods and compositions for treating infection” (UNIVERSITY OF ROCHESTER, priority 2012, dated 2018).

Structures can show the parent of a compound that is named as a salt. Where two headings read alike, the source gives them in different places.

Holding throughout (test): AK assay 384-well format, Prestwick library screening
The subject of one experiment is K. pneumoniae. The class given is cell-based, Klebsiella pneumoniae. Particulars: Klebsiella pneumoniae, 3 h, 50 μM final drug concentration, cutoff for positive-scoring molecules 3-fold increase.
A further experiment deals with E. faecium. Type of experiment: cell-based, Enterococcus faecium. Particulars: Enterococcus faecium, 3 h, 50 μM final drug concentration, cutoff for positive-scoring molecules 3-fold increase.
In a further experiment the test system is P. aeruginosa. The class given is cell-based, Pseudomonas aeruginosa. Particulars: Pseudomonas aeruginosa, 3 h, 50 μM final drug concentration, cutoff for positive-scoring molecules 3-fold increase.
In a further experiment the test system is E. cloacae. Type of experiment: cell-based, Enterobacter cloacae. Particulars: Enterobacter cloacae, 3 h, 50 μM final drug concentration, cutoff for positive-scoring molecules 3-fold increase.
In experiment [1] the test system is S. aureus strain USA300-0114. Type of experiment: cell-based, Staphylococcus aureus. Particulars: Staphylococcus aureus, USA300, 3 h, 50 μM final drug concentration, cutoff for positive-scoring molecules 3-fold increase.
The subject of experiment [2] is A. baumannii strain 98-37-09. The class given is cell-based, Acinetobacter baumannii. Particulars: Acinetobacter baumannii, 983709, 3 h, 50 μM final drug concentration, cutoff for positive-scoring molecules 3-fold increase.
Another experiment deals with E. coli. Type of experiment: cell-based, Escherichia coli. Particulars: Escherichia coli, 3 h, 50 μM final drug concentration, cutoff for positive-scoring molecules 3-fold increase.
[3] abbreviates: 384-well format, read-out: AK-based Prestwick Library Screening Results, K. pneumoniae (increase in extracellular AK activity).
Where [4] appears, read: 384-well format, read-out: AK-based Prestwick Library Screening Results, E. faecium (increase in extracellular AK activity).
The mark [5] stands for this setting: 384-well format, read-out: AK-based Prestwick Library Screening Results, P. aeruginosa (increase in extracellular AK activity).
Setting [6] is: 384-well format, read-out: AK-based Prestwick Library Screening Results, E. cloacae (increase in extracellular AK activity).
[7] abbreviates: 384-well format, read-out: AK-based Prestwick Library Screening Results, S. aureus (increase in extracellular AK activity).
Setting [8] is: 384-well format, read-out: AK-based Prestwick Library Screening Results, A. baumannii (increase in extracellular AK activity).
Setting [9] is: 384-well format, read-out: AK-based Prestwick Library Screening Results, E. coli (increase in extracellular AK activity).
The mark [10] stands for this setting: planktonic, read-out: AK-based Prestwick Library Screening Results, K. pneumoniae (fold increase in extracellular AK activity).
Setting [11] is: planktonic, read-out: AK-based Prestwick Library Screening Results, E. faecium (fold increase in extracellular AK activity).
The mark [12] stands for this setting: planktonic, read-out: AK-based Prestwick Library Screening Results, P. aeruginosa (fold increase in extracellular AK activity).
The mark [13] stands for this setting: planktonic, read-out: AK-based Prestwick Library Screening Results, E. cloacae (fold increase in extracellular AK activity).
[14] abbreviates: planktonic, read-out: AK-based Prestwick Library Screening Results, S. aureus (fold increase in extracellular AK activity).
Setting [15] is: planktonic, read-out: AK-based Prestwick Library Screening Results, A. baumannii (fold increase in extracellular AK activity).
[16] abbreviates: planktonic, read-out: AK-based Prestwick Library Screening Results, E. coli (fold increase in extracellular AK activity).
The mark [17] stands for this setting: planktonic K. pneumoniae, 384-well, read-out: AK-based Prestwick Library Screening Results: K. pneumoniae (increase in extracellular AK activity).
The mark [18] stands for this setting: planktonic E. faecium, 384-well, read-out: AK-based Prestwick Library Screening Results: E. faecium (increase in extracellular AK activity).
Setting [19] is: planktonic P. aeruginosa, 384-well, read-out: AK-based Prestwick Library Screening Results: P. aeruginosa (increase in extracellular AK activity).
Where [20] appears, read: planktonic E. cloacae, 384-well, read-out: AK-based Prestwick Library Screening Results: E. cloacae (increase in extracellular AK activity).
Where [21] appears, read: planktonic S. aureus, 384-well, read-out: AK-based Prestwick Library Screening Results: S. aureus (increase in extracellular AK activity).
The mark [22] stands for this setting: planktonic A. baumannii, 384-well, read-out: AK-based Prestwick Library Screening Results: A. baumannii (increase in extracellular AK activity).
Where [23] appears, read: planktonic E. coli, 384-well, read-out: AK-based Prestwick Library Screening Results: E. coli (increase in extracellular AK activity).

`CCOC(=O)C1=C[C@]2(CC)CCCN3CCc4c(n1c1ccccc41)[C@@H]32` [Vinpocetine]: the fold induction at 50 µM was 0.8 in the experiment with K. pneumoniae (setting [3]); 1 in the experiment on E. faecium (setting [4]); 1 with P. aeruginosa (setting [5]); 1 with E. cloacae (setting [6]); 0.8 in experiment [1] (setting [7]); 0.9 in experiment [2] (setting [8]). For the same compound, the fold induction at 50 µM with E. coli (setting [9]) was 0.9.
With `O=c1cc(-c2ccccc2)oc2cc(O)cc(O)c12` [Chrysin], the fold induction at 50 µM worked out at 0.2 in the experiment on K. pneumoniae (setting [10]); 0.3 in the experiment on E. faecium (setting [11]); 0.1 in the experiment on P. aeruginosa (setting [12]); 0.6 in the experiment on E. cloacae (setting [13]); 0.2 in experiment [1] (setting [14]); 0.2 in experiment [2] (setting [15]). Moreover, the fold induction at 50 µM with E. coli (setting [16]) is 0.2.
In the case of `C[C@]12C=CC(=O)C=C1CC[C@H]1[C@@H]3C[C@@H](O)[C@](O)(C(=O)CO)[C@@]3(C)C[C@H](O)[C@@]12F` [Triamcinolone], the fold induction at 50 µM with K. pneumoniae (setting [3]) came out at 0.7; with E. faecium (setting [4]), 1; in the experiment with P. aeruginosa (setting [5]) it was 0.7; with E. cloacae (setting [6]), 1.2; in experiment [1] (setting [7]), 0.8; in experiment [2] (setting [8]), 0.9. Moreover, in the experiment on E. coli (setting [9]), the fold induction at 50 µM stood at 1.
Turning to `CC1=C(C(=O)O)N2C(=O)[C@@H](NC(=O)[C@H](N)c3ccc(O)cc3)[C@H]2SC1` [Cefadroxil], the fold induction at 50 µM in the experiment on K. pneumoniae (planktonic K. pneumoniae, read-out: AK-based Prestwick Library Screening Results, K. pneumoniae (increase in extracellular AK activity)) stood at 0.8; in the experiment with E. faecium (planktonic E. faecium, read-out: AK-based Prestwick Library Screening Results, E. faecium (increase in extracellular AK activity)), 0.8; in the experiment with P. aeruginosa (planktonic P. aeruginosa, read-out: AK-based Prestwick Library Screening Results, P. aeruginosa (increase in extracellular AK activity)), 0.8; with E. cloacae (planktonic E. cloacae, read-out: AK-based Prestwick Library Screening Results, E. cloacae (increase in extracellular AK activity)) it was 1.2; in experiment [1] (planktonic S. aureus, read-out: AK-based Prestwick Library Screening Results, S. aureus (increase in extracellular AK activity)), 0.5; in experiment [2] (planktonic A. baumannii, read-out: AK-based Prestwick Library Screening Results, A. baumannii (increase in extracellular AK activity)), 0.9. Besides, the fold induction at 50 µM in the experiment on E. coli (planktonic E. coli, read-out: AK-based Prestwick Library Screening Results, E. coli (increase in extracellular AK activity)) was 0.9.
As to `CC(=O)OCC(=O)[C@@]1(O)CC[C@H]2[C@@H]3CCC4=CC(=O)CC[C@]4(C)[C@@]3(F)[C@@H](O)C[C@@]21C` [Fludrocortisone acetate], the fold induction at 50 µM in the experiment on K. pneumoniae (setting [17]) worked out at 1; in the experiment on E. faecium (setting [18]) it was 1.1; in the experiment with P. aeruginosa (setting [19]), 1.2; with E. cloacae (setting [20]), 1.4; in experiment [1] (setting [21]), 1; in experiment [2] (setting [22]), 1.2. Besides, the fold induction at 50 µM in the experiment on E. coli (setting [23]) was found to be 1.3.
Turning to `O=C(O)c1ccccc1OP(=O)(O)O` [Fosfosal], the fold induction at 50 µM is 0.6 with K. pneumoniae (setting [10]); 0.9 in the experiment with E. faecium (setting [11]); 0.7 in the experiment with P. aeruginosa (setting [12]); 0.8 in the experiment with E. cloacae (setting [13]); 0.7 in experiment [1] (setting [14]); 0.8 in experiment [2] (setting [15]). The fold induction at 50 µM with E. coli (setting [16]) amounted to 0.7.
Regarding `COc1cc(C(=O)OC2CC3CCC(C2)N3C)ccc1O` (stereo not shown) [Fillalbin], the fold induction at 50 µM amounted to 0.8 in the experiment on K. pneumoniae (read-out: AK-based Prestwick Library Screening Results, K. pneumoniae (fold increase in extracellular AK activity)); 1 in the experiment with E. faecium (read-out: AK-based Prestwick Library Screening Results, E. faecium (fold increase in extracellular AK activity)); 1.2 in the experiment with P. aeruginosa (read-out: AK-based Prestwick Library Screening Results, P. aeruginosa (fold increase in extracellular AK activity)); 1.8 in the experiment with E. cloacae (read-out: AK-based Prestwick Library Screening Results, E. cloacae (fold increase in extracellular AK activity)); 1 in experiment [1] (read-out: AK-based Prestwick Library Screening Results, S. aureus (fold increase in extracellular AK activity)); 0.9 in experiment [2] (read-out: AK-based Prestwick Library Screening Results, A. baumannii (fold increase in extracellular AK activity)). Besides, the fold induction at 50 µM with E. coli (read-out: AK-based Prestwick Library Screening Results, E. coli (fold increase in extracellular AK activity)) worked out at 1.2.
Turning to `CCC[C@@H]1C[C@@H](C(=O)N[C@@H]([C@H]2O[C@H](SC)[C@H](O)[C@@H](O)[C@H]2O)[C@@H](C)O)N(C)C1` [Lincomycin hydrochloride], the fold induction at 50 µM turned out to be 0.9 in the experiment with K. pneumoniae (setting [17]); 1.3 with E. faecium (setting [18]); 1.2 in the experiment with P. aeruginosa (setting [19]); 1.3 in the experiment on E. cloacae (setting [20]); 7.9 in experiment [1] (setting [21]); 1.2 in experiment [2] (setting [22]). In addition, the fold induction at 50 µM in the experiment with E. coli (setting [23]) came to 0.9.
For the compound `CSc1ccc2c(c1)N(CCC1CCCCN1C)c1ccccc1S2` (stereo not shown) [Thioridazine hydrochloride], the fold induction at 50 µM in the experiment with K. pneumoniae (setting [17]) is 1.3; with E. faecium (setting [18]) it was 1; in the experiment with P. aeruginosa (setting [19]) it was 1.1; in the experiment with E. cloacae (setting [20]), 1.5; in experiment [1] (setting [21]) it was 1.3; in experiment [2] (setting [22]), 2.9. The fold induction at 50 µM in the experiment on E. coli (setting [23]) amounted to 1.6.
With `O=C(O)c1cccnc1Nc1cccc(C(F)(F)F)c1` [Niflumic acid], the fold induction at 50 µM in the experiment with K. pneumoniae (setting [3]) amounted to 0.6; with E. faecium (setting [4]), 0.9; in the experiment with P. aeruginosa (setting [5]), 0.7; in the experiment on E. cloacae (setting [6]) it was 0.8; in experiment [1] (setting [7]) it was 0.7; in experiment [2] (setting [8]) it was 0.7. The fold induction at 50 µM in the experiment on E. coli (setting [9]) was 0.6.
